Reference: PMC9862037, “Interactions of Mycotoxin Alternariol with Cytochrome P450 Enzymes and OATP Transporters” (Metabolites, 2022)
Where two headings read alike, the source gives them in different places.

Legend:
CYP1A2 [1] = target: T1, CYP1A2 (Homo sapiens, UniProt P05177); assay: biochemical
T1 construct: purchased Abcam ab211075
Protocol: CYP1A2 Inhibitor Assay Kit (Abcam; Cambridge, UK) was applied following the manufacturer’s description, where the inhibitory action of 0.000, 0.001, 0.010, 0.050, 0.10, 0.20, 0.50, 1.25, 3.0, 10, and 25 μM AOH concentrations were tested.
(§1) IC50 values were calculated by sigmoidal fitting (Hill1), using the Origin (version 2018, OriginLab Corporation, Northampton, MA, USA) software.

CYP2C9 = target: T2, CYP2C9 (Homo sapiens, UniProt P11712); assay type: in vitro ADME; conditions: 5 μM AOH; 120 min incubation; vs CYPnull
T2 construct: purchased Merck; host or cells: yeast (inferred from the description of the CYPnull control, 'processed identically')
T2 sequence (P11712 whole entry): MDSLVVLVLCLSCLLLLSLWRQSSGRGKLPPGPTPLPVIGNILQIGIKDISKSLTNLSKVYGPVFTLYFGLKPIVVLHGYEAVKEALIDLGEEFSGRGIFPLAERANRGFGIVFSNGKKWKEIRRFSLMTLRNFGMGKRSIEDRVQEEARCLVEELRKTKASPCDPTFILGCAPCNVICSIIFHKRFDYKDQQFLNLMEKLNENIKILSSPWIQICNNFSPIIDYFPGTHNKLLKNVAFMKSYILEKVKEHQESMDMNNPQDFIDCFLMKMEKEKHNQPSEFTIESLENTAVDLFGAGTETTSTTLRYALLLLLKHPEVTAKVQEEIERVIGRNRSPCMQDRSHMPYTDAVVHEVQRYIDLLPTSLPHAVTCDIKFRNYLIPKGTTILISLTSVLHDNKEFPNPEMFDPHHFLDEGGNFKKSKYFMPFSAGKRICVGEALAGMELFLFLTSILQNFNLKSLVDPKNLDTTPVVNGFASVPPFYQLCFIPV
Protocol: (§2) To test the potential biotransformation of AOH by CYPs, the changes in the concentrations of AOH were examined in the presence of CYP1A2, 2C9, 2C19, 2D6, or 3A4 enzymes. Samples (final volume: 200 μL) containing AOH (5 μM), glucose-6-phosphate (500 μM), nicotinamide adenine dinucleotide phosphate (NADP^+, 200 μM), and the enzymes (CypExpress Cytochrome P450 reagents: 15 mg/mL each; including both CYP and glucose-6-phosphate dehydrogenase enzymes) were incubated for 0, 30, 60, 90, and 120 min (700 rpm, 30 °C) in potassium phosphate buffer (0.05 M, pH 7.5). The reaction was stopped by the addition of ice-cold methanol (100 μL), then the samples were centrifuged (10 min, 14,000 g, room temperature). AOH content of the supernatants was directly analyzed by HPLC-FLD (see details in Section 2.7). As a control, CypExpress Control reagent (CYPnull; 15 mg/mL) was also applied, which is a permeabilized and stabilized dried yeast powder (produced using an empty vector) and processed identically to CypExpress Cytochrome P450 products.
(§3) In CYP experiments, AOH was quantified with the above-described HPLC system, except that a fluorescence detector (FP-920; Jasco, Tokyo, Japan) was applied. Samples (20 μL) were driven through a Phenomenex Security Guard (C18, 4.0 × 3.0 mm) precolumn (Phenomenex, Torrance, CA, USA) linked to a Kinetex EVO-C18 (250 × 4.6 mm, 5 μm; Phenomenex) analytical column with 1.0 mL/min flow rate, at room temperature. For the isocratic elution, a mobile phase with 1 mM phosphoric acid (pH 3.0) and acetonitrile (65:35 v/v%) was applied. AOH was detected at 455 nm (λex = 345 nm). Limit of detection (LOD) and limit of quantification (LOQ) were established as the lowest concentrations when the signal-to-noise ratios were three and ten, respectively. The major validation parameters of this HPLC-FLD method were the following: linearity (R^2 = 0.997, in the 100–1000 nM concentration range); LOD = 100 nM; LOQ = 200 nM; intraday precision = 2.9% (n = 7); accuracy = 3.4% (n = 7).

CYP2D6 [2] = target: T3, CYP2D6 (Homo sapiens, UniProt P10635); assay type: in vitro ADME; conditions: 5 μM AOH; 120 min incubation; vs CYPnull
T3 construct: purchased Merck; host or cells: yeast (inferred from the description of the CYPnull control, 'processed identically')
T3 sequence (P10635 whole entry): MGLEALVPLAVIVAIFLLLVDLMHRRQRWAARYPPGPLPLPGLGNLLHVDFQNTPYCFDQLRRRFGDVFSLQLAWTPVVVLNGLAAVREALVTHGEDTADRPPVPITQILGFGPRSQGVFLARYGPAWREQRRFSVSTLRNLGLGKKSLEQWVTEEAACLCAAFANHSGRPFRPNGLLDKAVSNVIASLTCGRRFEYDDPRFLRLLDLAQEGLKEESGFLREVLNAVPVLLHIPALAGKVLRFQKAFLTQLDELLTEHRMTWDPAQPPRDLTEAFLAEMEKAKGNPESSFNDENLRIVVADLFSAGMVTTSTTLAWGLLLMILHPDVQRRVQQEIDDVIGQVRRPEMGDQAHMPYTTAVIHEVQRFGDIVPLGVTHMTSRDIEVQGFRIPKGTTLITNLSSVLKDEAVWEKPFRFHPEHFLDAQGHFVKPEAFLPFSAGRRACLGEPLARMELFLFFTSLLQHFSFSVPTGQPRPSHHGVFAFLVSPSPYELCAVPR
Protocol: as §2, §3

CYP3A4 = target: T4, CYP3A4 (Homo sapiens, UniProt P08684); assay type: in vitro ADME; conditions: 5 μM AOH; 120 min incubation; vs CYPnull
T4 construct: purchased Merck; host or cells: yeast (inferred from the description of the CYPnull control, 'processed identically')
T4 sequence (P08684 whole entry): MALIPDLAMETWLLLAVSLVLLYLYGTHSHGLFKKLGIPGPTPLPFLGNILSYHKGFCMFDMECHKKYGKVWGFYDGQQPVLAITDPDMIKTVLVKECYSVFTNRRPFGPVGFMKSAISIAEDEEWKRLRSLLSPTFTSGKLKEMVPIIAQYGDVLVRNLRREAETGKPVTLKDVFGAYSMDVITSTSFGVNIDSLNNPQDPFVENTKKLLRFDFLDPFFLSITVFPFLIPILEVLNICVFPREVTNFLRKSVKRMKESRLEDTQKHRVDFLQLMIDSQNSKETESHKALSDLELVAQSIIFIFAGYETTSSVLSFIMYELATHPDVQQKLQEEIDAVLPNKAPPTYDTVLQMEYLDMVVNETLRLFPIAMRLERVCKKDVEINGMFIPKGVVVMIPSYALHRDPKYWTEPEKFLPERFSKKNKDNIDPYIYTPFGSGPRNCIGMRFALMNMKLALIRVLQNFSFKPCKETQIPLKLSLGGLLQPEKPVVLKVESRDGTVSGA
Protocol: as §2, §3

CYP2C19 [3] = target: T5, CYP2C19 (Homo sapiens, UniProt P33261); assay type: in vitro ADME; conditions: 5 μM AOH; significant (p < 0.01) only after 120 min
T5 construct: purchased Merck; host or cells: yeast (inferred from the description of the CYPnull control, 'processed identically')
T5 sequence (P33261 whole entry): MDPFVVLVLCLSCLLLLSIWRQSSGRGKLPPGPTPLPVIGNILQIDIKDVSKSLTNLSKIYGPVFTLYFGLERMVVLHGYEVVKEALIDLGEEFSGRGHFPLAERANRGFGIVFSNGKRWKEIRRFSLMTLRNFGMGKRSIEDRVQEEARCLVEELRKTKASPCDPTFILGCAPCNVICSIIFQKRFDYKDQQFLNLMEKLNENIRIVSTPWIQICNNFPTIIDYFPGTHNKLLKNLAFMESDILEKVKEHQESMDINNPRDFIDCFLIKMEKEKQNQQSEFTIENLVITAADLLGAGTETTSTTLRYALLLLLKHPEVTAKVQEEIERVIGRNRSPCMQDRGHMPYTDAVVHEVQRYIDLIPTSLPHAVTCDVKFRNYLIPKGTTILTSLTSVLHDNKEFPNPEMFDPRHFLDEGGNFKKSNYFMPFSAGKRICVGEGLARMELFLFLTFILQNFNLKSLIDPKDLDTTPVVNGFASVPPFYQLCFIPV
Protocol: as §2, §3

CYP1A2 [4] = target: T1, CYP1A2; assay type: in vitro ADME; conditions: 5 μM AOH
Protocol: as §2, §3

CYP2D6 [5] = target: T3, CYP2D6; assay type: biochemical; conditions: 50 μM AOH
Protocol: (§4) The potential inhibitory effects of AOH on CYP2C9, 2C19, 2D6, and 3A4 enzymes were tested in vitro employing CypExpress human kits, using the substrates recommended by the U.S. Food and Drug Administration (FDA; https://www.fda.gov/drugs/drug-interactions-labeling/drug-development-and-drug-interactions-table-substrates-inhibitors-and-inducers; accessed on 19 December 2022) (diclofenac, S-mephenytoin, dextromethorphan, and testosterone, respectively). The impacts of increasing concentrations of AOH (0.00, 0.05, 0.50, 2.0, 5.0, 10, 25, 30, and 50 μM) were examined on diclofenac 4′-hydroxylation (CYP2C9), S-mephenytoin 4-hydroxylation (CYP2C19), dextromethorphan demethylation (CYP2D6), and testosterone 6β-hydroxylation (CYP3A4) as described previously, without modifications. In these assays, the substrates and products were quantified by HPLC-UV [28].
as §1
(§5) After CYP450 incubations, the product formation rate was investigated using an integrated HPLC system (Jasco, Tokyo, Japan) built up from an autosampler (AS-4050), a binary pump (PU-4180), and a UV detector (UV-975). Chromatographic data were evaluated employing ChromNAV2 software (Jasco, Tokyo, Japan). Quantitative determinations of 4′-hydroxydiclofenac and diclofenac (CYP2C9), 4-hydroxymephenytoin and mephenytoin (CYP2C19), dextromethorphan and dextrorphan (CYP2D6), as well as testosterone and 6β-hydroxytestosterone (CYP3A4) were carried out as previously reported, without modifications.

CYP2C19 [6] = target: T5, CYP2C19; assay type: biochemical
Protocol: as §4, §1, §5

T1 sequence (P05177 whole entry): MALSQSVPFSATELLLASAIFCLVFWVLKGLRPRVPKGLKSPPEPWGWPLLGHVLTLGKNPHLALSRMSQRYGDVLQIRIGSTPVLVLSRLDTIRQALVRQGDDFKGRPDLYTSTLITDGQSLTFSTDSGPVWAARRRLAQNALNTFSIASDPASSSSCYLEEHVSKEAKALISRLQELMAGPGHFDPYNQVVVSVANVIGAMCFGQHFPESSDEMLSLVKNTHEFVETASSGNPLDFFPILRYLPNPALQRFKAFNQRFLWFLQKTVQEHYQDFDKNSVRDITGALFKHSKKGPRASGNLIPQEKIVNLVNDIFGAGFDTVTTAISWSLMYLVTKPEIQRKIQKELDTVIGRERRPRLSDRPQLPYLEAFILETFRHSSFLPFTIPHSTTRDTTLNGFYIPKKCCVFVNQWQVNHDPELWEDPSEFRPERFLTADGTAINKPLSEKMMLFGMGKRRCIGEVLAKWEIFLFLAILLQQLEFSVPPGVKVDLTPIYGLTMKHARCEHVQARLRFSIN

Structure (SMILES): Cc1cc(O)cc2oc(=O)c3c(O)cc(O)cc3c12 [AOH, Alternariol]
- CYP1A2 inhibition at 0.05 μM (CYP1A2 [1]; 0.05 μM AOH, p < 0.01): statistically significant
- CYP1A2 inhibition at 10 μM (CYP1A2 [1]; 10 μM AOH): close to complete
- IC50 (CYP1A2 [1]; fluorometric kit, AOH 0-25 μM, read-out: IC50, CYP1A2 inhibition): 0.15 µM
- changes in AOH levels in the presence of CYP2C9 (CYP2C9): no relevant changes
- changes in AOH levels in the presence of CYP2D6 (CYP2D6 [2]): no relevant changes
- changes in AOH levels in the presence of CYP3A4 (CYP3A4): no relevant changes
- changes in AOH levels in the presence of CYP2C19 (CYP2C19 [3]): slight decrease
- depletion of AOH by CYP1A2 (CYP1A2 [4]; 60 min incubation): 16%
- depletion of AOH by CYP1A2 (CYP1A2 [4]; 120 min incubation): 25%
- effect on CYP2D6-catalyzed dextromethorphan demethylation (CYP2D6 [5]): not affected
- CYP2C19 inhibition at 5 μM (CYP2C19 [6]; 5 μM AOH, p < 0.01): significantly (p < 0.01) inhibited
- decrease in 4-hydroxymephenytoin production (CYP2C19) (CYP2C19 [6]; 50 μM AOH (highest concentration)): 55%
